The conditions of series [1]: in the presence of light; cited from earlier work.
For series [2] the following is noted: approximate; cited from earlier work.
The format of series [3] is in vitro ADME, Human. The method, then:
Skin permeation rates of various ketorolac/enhancer formulations were determined using flow through diffusion cells with an active area of 1 cm^2 and a receiving column of 3 ml. The receptor fluid, isotonic saline, was pumped into and through the cells by a peristaltic pump. Samples were collected in glass vials arranged in an automatic fraction collector. Human skin was placed on the lower half of the diffusion cell with the stratum corneum facing the donor compartment. The test solution or transdermal device was placed on the stratum corneum and the amount of drug permeated across the skin (µg/cm^2·hr) was calculated from the cumulative release.

For series [4] the following is noted: water and methanol; cited from earlier work.

What is called half-life is the time needed for the level to fall by half in the phase considered. As for `O=C(c1ccccc1)c1ccc2n1CCC2C(=O)O` (racemic) [ketorolac], the stability to light entry in series [1] is listed as “degrades in the presence of light”. Also, the half-life in series [2] was roughly 4 h.

Take `O=C(c1ccccc1)c1ccc2n1CC[C@@H]2C(=O)O` [(-) ketorolac]: the “permeability to human skin” value in series [3] was “as permeable to human skin as the racemate”.

With `O=C(c1ccccc1)c1ccc2n1CCC2C(=O)O` (stereo not shown) [Ketorolac tromethamine], in series [4], the solubility result was “freely soluble in water and methanol”.
